The record followed here is US20230131339A1, “EPI-X4 BASED PEPTIDES AND DERIVATIVES THEREOF” (Universitaet Ulm, priority 2020, published 2023).

The target in data set [1] is T1, CXCR4 12G5 epitope of AML cells (Homo sapiens, UniProt P61073).
T1 construct: endogenous in cells
Briefly: Blocking of the CXCR4 12G5 epitope of AML cells. The data set is classed as binding. The source says:
(§1) Experimental data support the efficiency of the claimed peptide derivatives against the diseases mentioned above. At the example of JM #21 (SEQ ID NO.: 23) it could be shown that the peptides counteract growth and migration in vitro and in vivo of Acute Myeloid Leukemia (AML) cells as well as primary patient material and Waldenström's Macroglobulinemia (WM) cells harboring different WHIM-like CXCR4 mutations. This was accompanied by intrinsic changes suppressing oncogenic MAP kinase signaling of AML and WM cells.

The subject of data set [2] is CXCL12-induced ERK phosphorylation of AML cells. Briefly: CXCL12-induced ERK phosphorylation of AML cells. The data set is classed as cell-based.
Excerpt: as §1

Data set [3] has as its system CXCL12 induced migration of T-cells. The experiment in a line: Migration assay (transwell, Jurkat cells). Type of data set: cell-based.
Data set [4] deals with CXCR4 12G5 epitope of WM cells. Briefly: Blocking of the CXCR4 12G5 epitope of WM cells. The data set is classed as binding. The note with it: with or without CXCR4 mutations.
Excerpt: as §1

Data set [5] in a line: Stability assay in human S9 liver fractions. The note with it: 2 hours, with cofactors.
Procedure: Further, the stability of peptides in human S9 liver fractions (in the presence of cofactors) was tested (FIG. 12). […] To simulate and predict hepatic metabolic clearance, peptides were added to human S9 liver fractions. […] For each peptide, three independent experiments were performed.
Stability assay in human S9 liver fractions. Pooled human liver S9 fractions were obtained from Thermo Fisher Scientific at a total protein concentration of 20 mg/ml. Fractions were stored in 25 μl aliquots at −80° C. For stability experiments, they were diluted to a final concentration of 0.5 mg/ml in Tris buffer. Cofactors (or buffer) were added immediately before start of the experiment (NADPH: 1 mM, UDPGA: 0.5 mM, GSH: 2.5 mM, PAPS: 0.05 mg/ml, Sigma Aldrich). The reaction was started by adding peptides or compounds at a concentration of 20 μM to the mixture and gentle agitation at 37° C. Determination of enzymatic stability was performed as described for plasma.
Data set [6] relates to CXCR4-tropic X4-HIV-1 (NL4-3). Type of data set: cell-based. The note with it: compared to EPI-X4.
In data set [7] the test system is CXCL12-induced ERK signaling. The experiment in a line: ERK/AKT signaling assay in SupT1 cells: ERK phosphorylation. The note with it: 1 μM. The data set is classed as cell-based. Summed up: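 SupT1 cells in 1% FCS medium preincubated 15 min at 37 °C with compound, then stimulated 2 min with CXCL12 (100 ng/ml final). PFA-fixed, methanol-permeabilized cells stained for phospho-ERK1/2 (Tyr204/Tyr187) or phospho-AKT (Ser473) and read by flow cytometry; two or three independent experiments in triplicate.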

T1 sequence (P61073 whole entry): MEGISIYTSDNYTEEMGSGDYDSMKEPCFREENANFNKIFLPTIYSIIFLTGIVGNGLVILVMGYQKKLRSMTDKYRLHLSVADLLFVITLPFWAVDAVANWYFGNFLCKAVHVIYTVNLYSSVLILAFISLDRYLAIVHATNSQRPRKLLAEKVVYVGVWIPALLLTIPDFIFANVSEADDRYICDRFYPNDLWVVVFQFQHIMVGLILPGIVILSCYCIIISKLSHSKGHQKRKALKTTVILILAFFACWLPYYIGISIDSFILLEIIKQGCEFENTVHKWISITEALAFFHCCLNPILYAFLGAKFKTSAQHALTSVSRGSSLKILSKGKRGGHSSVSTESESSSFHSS

On to `CC[C@H](C)[C@H](N)C(=O)N[C@@H](CC(C)C)C(=O)N[C@@H](CCCNC(=N)N)C(=O)N[C@@H](Cc1c[nH]c2ccccc12)C(=O)N[C@@H](CO)C(=O)N[C@@H](CCCNC(=N)N)C(=O)N[C@@H](CCCCN)C(=O)N[C@@H](CC(C)C)C(=O)N1CCC[C@H]1C(=O)N[C@@H](CS)C(=O)N[C@H](C(=O)N[C@@H](CO)C(=O)O)C(C)C` [JM #21], for which, in data set [1], the “blocking of CXCR4 12G5 epitope of AML cells” value is “efficiently blocked the CXCR4 12G5 epitope of AML cells in a dose dependent manner”. The “CXCL12-induced ERK phosphorylation of AML cells” value in data set [2] was “reduced CXCL12-induced ERK phosphorylation of AML cells”. Besides, the “inhibition of CXCL12 induced migration of T-cells (in words)” value in data set [3] was “more effective than WSC02”. In addition, the “blocking of CXCR4 12G5 epitope of WM cells” value in data set [4] is recorded as “blocked the CXCR4 12G5 epitope of WM cells in presence or absence of different CXCR4 mutations in a dose dependent manner”. Besides, in data set [5], the “remaining activity in human S9 liver fractions after 2 hours” value is reported as “readily inactivated by liver enzymes”. For the same compound, the “fold more effective inhibition of X4-HIV-1 than EPI-X4” value in data set [6] is reported as around 100 fold. Also, in data set [7], the “reduction of CXCL12-induced ERK signaling” value is reported as 60%.
